Results reported in US5071839A, “Safe pharmaceutical composition for decreasing side effects of antiviral drugs and increasing the immune function (SDI) II” (priority 1987, dated 1991).
Like-named read-outs stand apart in the source and are kept apart here.

What was measured:
YAC-1 or EAC cells = experiment: Natural killer cell cytotoxicity, 51Cr release from YAC-1 or EAC cells (Example 5, Table 1); format: cell-based, mice; settings: C: control, only antiviral drug (80 μg/ml); E:T 100:1
Protocol: (§1) Male mice weight 18-20 g were used in the experimetns. The dosage of SDI is 5-10 mg/kg injected intraperitoneally. The normal mice were injected with same volume of normal saline. These injections were repeated daily for 3-5 days. On the last say, both antiviral drug and antiviral drug+SDI group were injected interaperitoneally.
Natural Killer (NK) Cells can destrou many viruse. NK cells may be important in limiting early spread of virus, also Natural Killer Cytotoxicity is effective antiviral agent. NK cell cytoxicity was tested by chromium release which assay using ^51 Cr-labelled YAC-1 or EAC cell line as targer cells. […] The effector cell to target cell (E:T) radio is 100:1. After the incubation the tuber were spun, the amount of ^51 Cr-released in 0.1 ml supernatant was counted by r-scintillation counter. Percent cytotoxicity was calculated from the following formula: [formula]

[1] = system: bone marrow stem cells (CFU-S); experiment: Spleen colony assay, bone marrow stem cells (CFU-S) (Example 6, Table 2); format: in vivo, mice; settings: C: control, only antiviral drug (80 μg/ml)
Protocol: as §1
Effects of SDI on hemopoietic system were investigated.

lymphocytes = experiment: Lymphoblastoid transformation test, 3H-TdR (Example 7, Table 3); format: cell-based, mice; settings: C: control, only antiviral drug (80 μg/ml)
Protocol: as §1
1. Reagents and conditions for cell culture
a. Culture media--RPMI 1640, madium 199 minimal essential medium (Eagle).
b. 37° C. to maintain the pH of the medium at 7.31.
c. Serum--generally 15-20% fetal bovine serum was incorporated.
d. Gaseous phase 5% CO2 in air;
e. Cell concentration--generally 1-2×10^6 /ml;
f. Stimulants--20 μg/ml for phytoagglutinin containing polysaccharide (PHA-M) or 10 μg/ml for polysaccharide-free purified phytoagglutinin (PHA-P).
2. Measured by liquid scintillation
a. The conditions of cell culture are same as above. ^3 H-TdR was added after 48 hours of incubation at a final concentration of 2 μCi/ml and continue the incubation for 24 hours.
b. Wash the cells twice with cold normal saline and the erythrocytes were lysed by addition of distilled-water and equal volume of 3.6% NaCi was then added. The intact lymphocytes and add 2 ml of 10% trichloroacetic acid to precipitate the protein. Wash twice with normal saline. Add 2 ml of ethanol: ether (1:1) to wash once. 0.2 ml of formic acid was then added for digestion till the precipitate was dissolved.
c. Add 4 ml of scintillation fluid to 0.1 ml of the final sample and count in a liquid scintillation counter.

white blood cells = experiment: White blood cells assay (Example 8, Table 4); format: in vivo, mice; settings: C: control, only antiviral drug (80 μg/ml); 7 days
Protocol: as §1
Action of SDI II and antiviral drug on white blood cells was investigated by means of white blood cells assay. […] Time of treatment is 7 days.

T lymphocytes = experiment: Formation of rosette (T lymphocytes with sheep erythrocytes) (Example 9, Table 5); format: cell-based, mice; settings: C: control, only antiviral drug (80 μg/ml)
Protocol: as §1
a. Obtain venous blood in heparin (10 IU ml^-1) and perform a total and differential leucocyte count.
b. Isolate lymphocyte fraction. Count vaiable lymphocytes calculate and record total yield. Adjust to 5×10^5 lymphocytes ml^-1.
c. Wash sheep erythrocytes by centrifugation (400 g for 10 minutes at room temperature) and ajust to a 2.5% v/v suspension in PBS.
d. Mix 0.1 ml of the lymphocyte suspension with 0.1 ml of sheep erythrocytes and centrifuge at 225 g for 5 minutes at room temperature.
e. Incubate for 2 hours at 4° C.
f. Add 50 μl of fetal bovine serum (FBS).
g. Resuspend cell mixture by gently tapping the tube and pipette a sample into a haemocytomer.
h. Count 200 lymphocytes and determine the percentage of cell with 3 or more erythrocytes attached. (Three are T lymphocytes).
i. Calculate the absolute number of T lymphocytes ml^-1 of original blood.

peritoneal macrophage = experiment: Phagocytosis of peritoneal macrophage of mice, 51Cr chick red blood cells (Example 10, Table 6); format: cell-based; settings: C: control, only antiviral drug (80 μg/ml)
Protocol: as §1
Count the number of macrophages in the peritoneal exudate of mice and adjust to 1×10^7 cell/ml with normal saline. Add 0.1 ml of the macrophage suspension. i.e. 1×10^6 cells to each well on the plastic plate for test. Lable the chick red blood cell with ^51 Cr. Suspend the labelled chick red blood cell and adjust to 1.5×10^8/ml, add 0.1 ml, i.e. 1.5×10^7, to each well. Incubate at 37° C. for 30 minutes. Wash thoughly to remove the free chick red blood cells. Count each well in a γ-counter.

[2] = cited from earlier work
DNA synthesis = settings: cited from earlier work

Compound	% Cytotoxicity (NK cells) (YAC-1 or EAC cells) [%]	Mean CFU ± SD [1]	CPM (lymphoblastoid transformation) (lymphocytes) [CPM]	White blood cells (white blood cells) [mL⁻¹]	Rate of formed rosette (T lymphocytes) [%]	CPM (phagocytosis of peritoneal macrophage) (peritoneal macrophage) [CPM]	side effects (marrow, blood) ([2]; various degree)	DNA synthesis (DNA synthesis)	side effects (marrow, blood) ([2]; in vivo)
Nc1ncn([C@@H]2O[C@H](CO)[C@@H](O)[C@H]2O)c(=O)n1 [AZC]	11.2	3.1	441	3800	19.8	401	–	–	–
Nc1ncn([C@H]2C[C@H](O)[C@@H](CO)O2)c(=O)n1 [AZCdR, 5'-Aza-2'-deoxycytidine]	–	–	–	–	–	–	bone-marrow suppression, megaloblastic anemia and recreasing total white blood cells	–	–
Cc1cn([C@H]2C[C@H](N=[N+]=[N-])[C@@H](CO)O2)c(=O)[nH]c1=O [AZT, 3'-Azido-3'-deoxythymidine]	–	–	–	–	–	–	bone-marrow suppression and megaloblastic anemia, and decreasing total white blood cells	blocker of DNA synthesis	–
Nc1ncnc2c1ncn2[C@H]1CC[C@@H](CO)O1 [DDA, 2',3'-Dideoxyadenoside]	18.0	4.2	502	4200	22.4	489	bone-marrow suppression, megaloblastic anemia and recreasing total white blood cells	–	–
Nc1ccn([C@@H]2O[C@H](CO)[C@@H](O)[C@@H]2O)c(=O)n1 [Ara-C, Cytarabine]	–	3.8	654	4200	23.7	512	bone-marrow suppression, megaloblastic anemia and recreasing total white blood cells	–	–
Nc1ccn([C@H]2CC[C@@H](CO)O2)c(=O)n1 [DDC, 2',3'-Dideoxycytidine]	–	–	–	–	–	–	–	–	bone-marrow suppression, megaloblastic anemia and recreasing total white blood cells
NC(=O)c1ncn([C@@H]2O[C@H](CO)[C@@H](O)[C@H]2O)n1 [Rib, Ribofuranosyl-Trazole-Carboxamide]	22.3	4.2	763	4900	28.7	540	bone-marrow suppression, megaloblastic anemia and recreasing total white blood cells	–	–
O=c1cnn([C@@H]2O[C@H](CO)[C@@H](O)[C@H]2O)c(=O)[nH]1 [AZU, 6-Azauridune]	–	–	–	–	–	–	bone-marrow suppression, megaloblastic anemia and recreasing total white blood cells	–	–
O=c1[nH]c(=O)n([C@H]2C[C@H](O)[C@@H](CO)O2)cc1I [IDU, Idoxuridine]	–	–	–	–	–	–	–	–	bone-marrow suppression, megaloblastic anemia and recreasing total white blood cells
Nc1nc2c(ncn2COCCO)c(=O)[nH]1 [ACV, Acyclovir]	–	–	–	–	–	–	bone-marrow suppression, megaloblastic anemia and recreasing total white blood cells	–	–
N=c1ccn2c(n1)O[C@H]1[C@H](O)[C@@H](CO)O[C@H]12 [C.C., Cyclocytidine]	–	–	–	–	–	–	bone-marrow suppression, megaloblastic anemia and recreasing total white blood cells	–	–
O=P1(N(CCCl)CCCl)NCCCO1 (centres unmarked) [CP, Cyclophosphamide]	20.7	4.0	620	5300	20.7	481	bone-marrow suppression, megaloblastic anemia and recreasing total white blood cells	–	–
